Test results reported in DBAASP.
In brackets after ≈: the same amount, converted by molar mass.

Key:
Test in all cases: ≥ marks a high value that may be exact or a test limit, other limits are often not marked, values filed in µg/mL are converted to µM
Staphylococcus aureus = test system: Staphylococcus aureus
Alcaligenes faecalis = test system: Alcaligenes faecalis
[1] = test system: Micrococcus luteus IFO 12708
Bacillus megaterium = test system: Bacillus megaterium
[2] = test system: Staphylococcus epidermidis
Escherichia coli D31 = test system: Escherichia coli D31
Haemophilus Influenzae = test system: Haemophilus Influenzae
Acinetobacter baumannii = test system: Acinetobacter baumannii
Vibrio alginolyticus = test system: Vibrio alginolyticus
[3] = test system: Staphylococcus haemolyticus
Salmonella typhimurium = test system: Salmonella typhimurium
Pseudomonas aeruginosa = test system: Pseudomonas aeruginosa
[4] = test system: Staphylococcus saprophyticus
[5] = test system: Dermacoccus nishinomiyaensis
Aeromonas hydrophila = test system: Aeromonas hydrophila
Klebsiella aerogenes = test system: Klebsiella aerogenes
Enterobacter cloacae = test system: Enterobacter cloacae
[6] = test system: Escherichia coli ATCC 28922
[7] = test system: Pseudomonas aeruginosa ATCC 9027
[8] = test system: Citrobacter freundii ATCC 8090
Xanthomonas citri = test system: Xanthomonas citri
[9] = test system: Agrobacterium tumefaciens GV3101
Methylobacterium sp. = test system: Methylobacterium sp.
Aeromonas sobria 090223 = test system: Aeromonas sobria 090223
[10] = test system: Staphylococcus aureus 090223
[11] = test system: Staphylococcus aureus ATCC 2592
[12] = test system: Staphylococcus aureus 1349
Candida glabrata 0902 = test system: Candida glabrata 0902
[13] = test system: Stenotrophomonas maltophilia 090223
Escherichia coli 1342 = test system: Escherichia coli 1342
[14] = test system: Escherichia coli ATCC 25922
[15] = test system: Enterococcus faecium 1299
Klebsiella pneumoniae = test system: Klebsiella pneumoniae
[16] = test system: Nocardia asteroides 090312
[17] = test system: Candida albicans ATCC 2002
Proteus mirabilis 090223 = test system: Proteus mirabilis 090223
[18] = test system: Staphylococcus aureus CUN 3792-99
[19] = test system: Acinetobacter baumannii ATCC 19606
[20] = test system: Pseudomonas aeruginosa ATCC 27853
[21] = test system: Stenotrophomonas maltophilia CUN 3998-00
[22] = test system: Pseudomonas aeruginosa CUN 4158-02
[23] = test system: Staphylococcus aureus ATCC 25923
[24] = test system: Bordetella bronchiseptica CUN 11844-99
[25] = test system: Staphylococcus aureus ATCC 43300

`CC(C)C[C@H](NC(=O)[C@H](Cc1c[nH]c2ccccc12)NC(=O)[C@H](C)NC(=O)CNC(=O)[C@@H](N)CC(C)C)C(=O)N[C@@H](C)C(=O)NCC(=O)N[C@@H](CCCCN)C(=O)N[C@H](C(=O)N[C@@H](C)C(=O)NCC(=O)N[C@H](C(=O)N[C@H](C(=O)N[C@@H](C)C(=O)N[C@H](C(=O)N[C@@H](Cc1ccc(O)cc1)C(=O)N[C@@H](C)C(=O)N[C@@H](Cc1c[nH]c2ccccc12)C(=O)N[C@@H](CC(N)=O)C(=O)N[C@@H](CCCN=C(N)N)C(=O)N[C@@H](Cc1ccc(O)cc1)C(=O)N[C@H](C(N)=O)C(C)C)[C@@H](C)O)C(C)C)[C@@H](C)O)C(C)C` [LGAWLAGKVAGTVATYAWNRYV] showed an MIC (Staphylococcus aureus) of 4.24 µM (≈ 10 µg/mL), an MIC (Alcaligenes faecalis) of 25 µM (≈ 59.2 µg/mL) and an MIC [1] of 0.566 µM (≈ 1.34 µg/mL). It also gave an MIC (Bacillus megaterium) of 25 µM (≈ 59.2 µg/mL), an MIC [2] of 4.24 µM (≈ 10 µg/mL) and an MIC (Escherichia coli D31) of 25 µM (≈ 59.2 µg/mL). The MIC (Haemophilus Influenzae) was 25 µM (≈ 59.2 µg/mL), the MIC (Acinetobacter baumannii) was 25 µM (≈ 59.2 µg/mL) and the MIC (Vibrio alginolyticus) was 1.13 µM (≈ 2.68 µg/mL). It also gave an MIC [3] of 4.24 µM (≈ 10 µg/mL), an MIC (Salmonella typhimurium) of 25 µM (≈ 59.2 µg/mL) and an MIC (Pseudomonas aeruginosa) of over 25 µM. It also gave an MIC [4] of 4.24 µM (≈ 10 µg/mL), an MIC [5] of 0.566 µM (≈ 1.34 µg/mL) and an MIC (Aeromonas hydrophila) of 25 µM (≈ 59.2 µg/mL). For the same compound, the MIC (Klebsiella aerogenes) was 25 µM (≈ 59.2 µg/mL) and the MIC (Enterobacter cloacae) was 25 µM (≈ 59.2 µg/mL).

In the case of `CC(C)C[C@H](NC(=O)[C@H](CC(C)C)NC(=O)CNC(=O)CNC(=O)CNC(=O)CNC(=O)CNC(=O)CNC(=O)CNC(=O)CNC(=O)CNC(=O)[C@H](CC(C)C)NC(=O)[C@H](CC(C)C)NC(=O)[C@@H]1CCCN1C(=O)CNC(=O)[C@H](CC(C)C)NC(=O)[C@H](CC(C)C)NC(=O)CNC(=O)CNC(=O)[C@H](CC(C)C)NC(=O)[C@H](CC(C)C)NC(=O)CN)C(=O)O` [GLLGGLLGPLLGGGGGGGGGLL], the MIC [6] is reported as at least 50 µM, the MIC [7] is reported as 8 µM (≈ 14.1 µg/mL) and the MIC [8] is reported as at least 75 µM.

Work on `CC[C@H](C)[C@H](N)C(=O)N[C@@H](Cc1ccccc1)C(=O)NCC(=O)N[C@@H](C)C(=O)N[C@H](C(=O)N[C@@H](CC(C)C)C(=O)N1CCC[C@H]1C(=O)N[C@@H](CC(C)C)C(=O)N[C@@H](C)C(=O)N[C@@H](CC(C)C)C(=O)NCC(=O)N[C@@H](C)C(=O)N[C@@H](CC(C)C)C(=O)N[C@@H](CCCCN)C(=O)N[C@@H](CC(N)=O)C(=O)N[C@@H](CC(C)C)C(=O)N[C@H](C(=O)N[C@@H](CCCCN)C(=O)O)[C@@H](C)CC)[C@@H](C)CC` [IFGAILPLALGALKNLIK] yielded an MIC (Xanthomonas citri) of 4 µM (≈ 7.46 µg/mL), an MIC [9] of 17 µM (≈ 31.7 µg/mL) and an MIC (Methylobacterium sp.) of 9 µM (≈ 16.8 µg/mL).

In the case of `CC[C@H](C)[C@@H]1NC(=O)[C@H](CC(C)C)NC(=O)[C@@H](NC(=O)[C@H](Cc2ccccc2)NC(=O)[C@H](CC(C)C)NC(=O)[C@H](CO)NC(=O)[C@@H]2CCCN2C(=O)[C@H](CC(C)C)NC(=O)[C@H](CCCN=C(N)N)NC(=O)[C@H](CCCCN)NC(=O)[C@@H](NC(=O)[C@@H](NC(=O)[C@H](C)NC(=O)CNC(=O)[C@H](CC(C)C)NC(=O)[C@H](C)NC(=O)[C@@H](N)Cc2ccccc2)C(C)C)[C@@H](C)O)CSSC[C@@H](C(=O)O)NC(=O)[C@H](CCCCN)NC(=O)[C@H](CCCN=C(N)N)NC(=O)[C@H]([C@@H](C)O)NC1=O` [FALGAVTKRLPSLFCLITRKC], the MIC (Aeromonas sobria 090223) is reported as 4.02 µM (≈ 9.39 µg/mL), the MIC [10] is reported as 0.984 µM (≈ 2.3 µg/mL) and the MIC [11] is reported as 8.04 µM (≈ 18.8 µg/mL). For the same compound, the MIC [12] was 8.04 µM (≈ 18.8 µg/mL), the MIC (Candida glabrata 0902) was 16 µM (≈ 37.5 µg/mL) and the MIC [13] was 2.01 µM (≈ 4.7 µg/mL). The MIC (Escherichia coli 1342) was 2.01 µM (≈ 4.7 µg/mL), the MIC (Acinetobacter baumannii) was 5.69 µM (≈ 13.3 µg/mL) and the MIC [14] was 8.04 µM (≈ 18.8 µg/mL). The MIC [15] was 2.01 µM (≈ 4.7 µg/mL), the MIC (Klebsiella pneumoniae) was over 42.8 µM and the MIC [16] was 8.04 µM (≈ 18.8 µg/mL). It also gave an MIC [17] of 0.984 µM (≈ 2.3 µg/mL) and an MIC (Proteus mirabilis 090223) of 4.02 µM (≈ 9.39 µg/mL).

Compound `NCCCC[C@H](NC(=O)CNC(=O)[C@H](CCCN=C(N)N)NC(=O)[C@H](Cc1ccc(O)cc1)NC(=O)[C@H](CCCN=C(N)N)NC(=O)[C@H](Cc1c[nH]c2ccccc12)NC(=O)[C@H](CCCN=C(N)N)NC(=O)[C@H](Cc1ccccc1)NC(=O)[C@H](CCCCN)NC(=O)[C@H](CCCCN)NC(=O)[C@H](Cc1c[nH]c2ccccc12)NC(=O)[C@H](CCCN=C(N)N)NC(=O)[C@H](CCCN=C(N)N)NC(=O)[C@H](CS)NC(=O)CN)C(=O)N[C@@H](Cc1ccccc1)C(=O)N[C@@H](Cc1c[nH]c2ccccc12)C(=O)N[C@@H](Cc1ccccc1)C(=O)N[C@@H](Cc1c[nH]c2ccccc12)C(=O)N[C@@H](CS)C(=O)NCC(N)=O` [GCRRWKKFRWRYRGKFWFWCG] has an MIC [18] of 22 µM (≈ 64 µg/mL), an MIC [19] of 22 µM (≈ 64 µg/mL) and an MIC [20] of 44 µM (≈ 128 µg/mL). The MIC [21] was 22 µM (≈ 64 µg/mL), the MIC [14] was 44 µM (≈ 128 µg/mL) and the MIC [22] was at least 44 µM. It also gave an MIC [23] of 22 µM (≈ 64 µg/mL), an MIC [24] of 11 µM (≈ 32 µg/mL) and an MIC [25] of 11 µM (≈ 32 µg/mL).
